Among the data in US9884043B2, “RORgammaT inhibitors” (Merck Sharp & Dohme Corp., priority 2011, dated 2018) are IC50 values, retold here.

This test deals with T1, HIS-tagged RORγ-LBD (Homo sapiens, UniProt P51449).
T1 construct: HIS-tagged RORγ-LBD was recombinantly expressed in SF9 cells using a baculovirus expression system; made in house; host or cells: SF9 cells, baculovirus; crude lysate used
T1 sequence (P51449 269-508 limits assumed): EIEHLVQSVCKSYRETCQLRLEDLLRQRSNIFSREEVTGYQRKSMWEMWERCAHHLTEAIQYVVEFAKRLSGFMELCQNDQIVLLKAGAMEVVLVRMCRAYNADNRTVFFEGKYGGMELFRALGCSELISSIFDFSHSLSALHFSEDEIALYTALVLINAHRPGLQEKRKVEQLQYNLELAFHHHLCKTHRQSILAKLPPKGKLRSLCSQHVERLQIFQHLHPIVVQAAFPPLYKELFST
Description: TR-FRET assay (Protocol B), RORγ-LBD lysate / biotinylated SRC1-2 LXXLL peptide. It counts as biochemical. The settings on record: unpurified RORγ-LBD lysate ~10 nM, SRC1-2 peptide 450 nM. An excerpt:
Activation of RORgammaT activity can be measured using e.g. biochemical TR-FRET assay. In such an assay, interaction of cofactor-derived peptides with human RORgammaT-Ligand Binding Domain (LBD) can be measured.
To identify novel antagonists of RORgammaT, an assay was developed which employs the interaction of RORgammaT with its co-activator peptide SRC1_2. […] The assay was run following three slightly different protocols, i.e. Protocol A, Protocol B, and Protocol C, which are described below.
TR-Fret Assay (Protocol B)
HIS-tagged RORγ-LBD was recombinantly expressed in SF9 cells using a baculovirus expression system. The protein was not purified. Cells were lysed and the lysate was used as a source for RORγ-LBD for the assay. A 1:80 dilution of RORγ-LBD lysate in assay buffer (25 mM HEPES pH 7.0, 100 mM NaCl, 0.01% Tween, 0.1% BSA) was prepared and 5 μL was added to each well (RORγ-LBD final concentration ˜10 nM). Control wells received lysate from SF9 cells not expressing RORγ-LBD.
Compounds to be tested were diluted to 100× final test concentration in DMSO and further diluted to 4× final test concentration using assay buffer to provide the test compound mixture. An aliquot (5 μL) of the test compound mixture was added to each well.
Background: In TR-FRET formats the signal depends on donor and acceptor labels being close together.
With `COc1cc(-c2nn(C(=O)c3c(Cl)cccc3C(F)(F)F)c3cccc(F)c23)c(F)cc1C(=O)O` [Example 24Y, 4-(1-(2-chloro-6-(trifluoromethyl)-benzoyl)-4-fluoro-1H-indazol-3-yl)-5-fluoro-2-methoxybenzoic acid], the IC50 was less than 50 nM.
In the case of `O=C(O)c1cc(-c2nn(C(=O)c3c(Cl)cccc3C(F)(F)F)c3cccc(F)c23)ccc1O` [Example 24Z, 5-(1-(2-chloro-6-(trifluoromethyl)-benzoyl)-4-fluoro-1H-indazol-3-yl)-2-hydroxybenzoic acid] it was more than 10000 nM.
In the case of `O=C(O)c1ccc(-c2nn(C(=O)c3c(Cl)cccc3C(F)(F)F)c3cc(C(=O)NCCO)ccc23)cc1` [Example 25A, sodium 4-(1-(2-chloro-6-(trifluoromethyl)benzoyl)-6-(2-hydroxyethylcarbamoyl)-1H-indazol-3-yl)benzoate] it was less than 50 nM; in that of `CN(C)C(=O)c1ccc2c(-c3ccc(C(=O)O)cc3)nn(C(=O)c3c(Cl)cccc3C(F)(F)F)c2c1` [Example 25B, 4-(1-(2-chloro-6-(trifluoromethyl)benzoyl)-6-(dimethyl-carbamoyl)-1H-indazol-3-yl)benzoic acid], less than 50 nM.
With `CN(C)C(=O)c1ccc2c(-c3ccc(C(=O)O)cc3F)nn(C(=O)c3c(Cl)cccc3C(F)(F)F)c2c1` [Example 25E, 4-(1-(2-chloro-6-(trifluoromethyl)benzoyl)-6-(dimethyl-carbamoyl)-1H-indazol-3-yl)-3-fluorobenzoic acid], the IC50 is less than 50 nM.
For the molecule `O=C(NCCO)c1ccc2c(-c3ccc(C(=O)O)c(F)c3)nn(C(=O)c3c(Cl)cccc3C(F)(F)F)c2c1` [Example 25G, 4-(1-(2-chloro-6-(trifluoromethyl)benzoyl)-6-(2-hydroxyethyl-carbamoyl)-1H-indazol-3-yl)-2-fluorobenzoic acid], the IC50 lay within 50 to 500 nM.
In the case of `O=C(O)c1ccc(-c2nn(C(=O)c3c(Cl)cccc3C(F)(F)F)c3cc(C(=O)NCCO)ccc23)c(F)c1` [Example 25H, 4-(1-(2-chloro-6-(trifluoromethyl)benzoyl)-6-(2-hydroxyethyl-carbamoyl)-1H-indazol-3-yl)-3-fluorobenzoic acid] it was less than 50 nM; in that of `CN(C)C(=O)c1ccc2c(-c3ccc(C(=O)O)c(F)c3)nn(C(=O)c3c(Cl)cccc3C(F)(F)F)c2c1` [Example 25I, 4-(1-(2-chloro-6-(trifluoromethyl)benzoyl)-6-(dimethyl-carbamoyl)-1H-indazol-3-yl)-2-fluorobenzoic acid], 50 to 500 nM.
`CN(C)C(=O)c1ccc2c(-c3ccc(C(=O)O)cc3Cl)nn(C(=O)c3c(Cl)cccc3C(F)(F)F)c2c1` [Example 25J, 3-chloro-4-(1-(2-chloro-6-(trifluoromethyl)benzoyl)-6-(dimethyl-carbamoyl)-1H-indazol-3-yl)benzoic acid] yielded an IC50 of less than 50 nM.
Regarding `O=C(O)c1ccc(-c2nn(C(=O)c3c(Cl)cccc3C(F)(F)F)c3cc(C(=O)NCCO)ccc23)c(Cl)c1` [Example 25K, 3-chloro-4-(1-(2-chloro-6-(trifluoromethyl)benzoyl)-6-(2-hydroxyethyl-carbamoyl)-1H-indazol-3-yl)benzoic acid], the IC50 was less than 50 nM.
As for `O=C(O)c1ccc(-c2nn(C(=O)c3c(Cl)cccc3C(F)(F)F)c3cc(C(=O)NCCCO)ccc23)cc1` [Example 25L, 4-(1-(2-chloro-6-(trifluoromethyl)benzoyl)-6-(3-hydroxypropyl-carbamoyl)-1H-indazol-3-yl)benzoic acid], the IC50 is less than 50 nM.
Molecule `O=C(O)c1ccc(-c2nn(C(=O)c3c(Cl)cccc3C(F)(F)F)c3cc(C(=O)NCCCO)ccc23)c(F)c1` [Example 25M, 4-(1-(2-chloro-6-(trifluoromethyl)benzoyl)-6-(3-hydroxypropyl-carbamoyl)-1H-indazol-3-yl)-3-fluorobenzoic acid] returned an IC50 of less than 50 nM.
Under `CC(O)CNC(=O)c1ccc2c(-c3ccc(C(=O)O)cc3)nn(C(=O)c3c(Cl)cccc3C(F)(F)F)c2c1` (centres unmarked) [Example 25O, 4-(1-(2-chloro-6-(trifluoromethyl)benzoyl)-6-(2-hydroxypropyl-carbamoyl)-1H-indazol-3-yl)benzoic acid] stands less than 50 nM.
In the case of `O=C(O)c1ccc(-c2nn(C(=O)c3c(Cl)cccc3C(F)(F)F)c3cc(C(=O)NCCCCO)ccc23)cc1` [Example 25P, 4-(1-(2-chloro-6-(trifluoromethyl)benzoyl)-6-(4-hydroxybutyl-carbamoyl)-1H-indazol-3-yl)benzoic acid] it was less than 50 nM.
Take `CN(CCO)C(=O)c1ccc2c(-c3ccc(C(=O)O)cc3)nn(C(=O)c3c(Cl)cccc3C(F)(F)F)c2c1` [Example 25Q, 4-(1-(2-chloro-6-(trifluoromethyl)benzoyl)-6-((2-hydroxyethyl) (methyl)carbamoyl)-1H-indazol-3-yl)benzoic acid]: the IC50 was less than 50 nM.
Under `CN(CCO)C(=O)c1ccc2c(-c3ccc(C(=O)O)cc3F)nn(C(=O)c3c(Cl)cccc3C(F)(F)F)c2c1` [Example 25R, 4-(1-(2-chloro-6-(trifluoromethyl)benzoyl)-6-((2-hydroxyethyl) (methyl)carbamoyl)-1H-indazol-3-yl)-3-fluorobenzoic acid] stands less than 50 nM; under `CC(=O)Oc1cc(-c2nn(C(=O)c3c(Cl)cccc3C(F)(F)F)c3cccc(F)c23)ccc1C(=O)O` [Example 26B, 2-acetoxy-4-(1-(2-chloro-6-(trifluoromethyl)benzoyl)-4-fluoro-1H-indazol-3-yl)benzoic acid], less than 50 nM.
Under `O=C(O)c1c(O)cc(-c2nn(C(=O)c3c(Cl)cccc3C(F)(F)F)c3cccc(F)c23)cc1F` [Example 26D, 4-(1-(2-chloro-6-(trifluoromethyl)benzoyl)-4-fluoro-1H-indazol-3-yl)-2-fluoro-6-hydroxybenzoic acid] stands less than 50 nM; under `O=C(O)c1ccc(-c2nn(C(=O)c3c(Cl)cccc3C(F)(F)F)c3cccc(F)c23)c(O)c1` [Example 26E, 4-(1-(2-chloro-6-(trifluoromethyl)benzoyl)-4-fluoro-1H-indazol-3-yl)-3-hydroxybenzoic acid], less than 50 nM; under `O=C(O)c1ccc(-c2nn(C(=O)c3c(Cl)cccc3C(F)(F)F)c3cccnc23)cc1O` [Example 26H, 4-(1-(2-chloro-6-(trifluoromethyl)benzoyl)-1H-pyrazolo[4,3-b]pyridin-3-yl)-2-hydroxybenzoic acid], less than 50 nM.
In the case of `CC(=O)Oc1cc(-c2nn(C(=O)c3c(Cl)cccc3C(F)(F)F)c3cccnc23)ccc1C(=O)O` [Example 26I, 2-acetoxy-4-(1-(2-chloro-6-(trifluoromethyl)benzoyl)-1H-pyrazolo[4,3-b]pyridin-3-yl)benzoic acid], the IC50 was less than 50 nM.
In turn, `CN(C)C(=O)c1ccc2c(-c3ccc(C(=O)O)c(O)c3)nn(C(=O)c3c(Cl)cccc3C(F)(F)F)c2c1` [Example 26J, 4-(1-(2-chloro-6-(trifluoromethyl)benzoyl)-6-(dimethyl-carbamoyl)-1H-indazol-3-yl)-2-hydroxybenzoic acid] gave an IC50 of less than 50 nM.
Regarding `NCc1ccc2c(-c3ccc(C(=O)O)cc3)nn(C(=O)c3c(Cl)cccc3C(F)(F)F)c2c1` [Example 27A, 4-(6-(aminomethyl)-1-(2-chloro-6-(trifluoromethyl)benzoyl)-1H-indazol-3-yl)benzoic acid], the IC50 was less than 50 nM.
Turning to `NCc1ccc2c(-c3ccc(C(=O)O)cc3F)nn(C(=O)c3c(Cl)cccc3C(F)(F)F)c2c1` [Example 27B, 4-(6-(aminomethyl)-1-(2-chloro-6-(trifluoromethyl)benzoyl)-1H-indazol-3-yl)-3-fluorobenzoic acid], the IC50 is less than 50 nM.
The molecule `O=C(O)c1ccc(-c2nn(C(=O)c3c(Cl)cccc3C(F)(F)F)c3ccccc23)cc1C(F)F` [Example 28, 4-(1-(2-chloro-6-(trifluoromethyl)benzoyl)-1H-indazol-3-yl)-2-(difluoromethyl)benzoic acid] returned an IC50 of less than 50 nM.
As to `N#Cc1ccc2c(-c3ccc(C(=O)O)cc3)nn(C(=O)c3c(Cl)cccc3C(F)(F)F)c2c1` [Example 29, 4-(1-(2-chloro-6-(trifluoromethyl)benzoyl)-6-cyano-1H-indazol-3-yl)benzoic acid], the IC50 fell in the range of 50 to 500 nM.

For orientation: IC50 means the point on the concentration scale where inhibition reaches its midpoint. A higher IC50 goes with weaker potency.
